The values below come from patent publication US20130072427A1, “GPR 119 MODULATORS” (Pfizer Inc., priority 2009, published 2013).

The structures appear in SMILES notation. “And” between values parts separate entries of the source, which are not always exact repeats. Equal entries are not always repeated.

The term Ki denotes a dissociation constant, usually derived from enzyme kinetics or from competition with a known ligand. Lower therefore signals tighter binding.

In this experiment the target is T1, human GPR119 (Homo sapiens, UniProt Q8TDV5).
T1 construct: host or cells: HEK293-CRE beta-lactamase cells
T1 sequence (Q8TDV5 1-335): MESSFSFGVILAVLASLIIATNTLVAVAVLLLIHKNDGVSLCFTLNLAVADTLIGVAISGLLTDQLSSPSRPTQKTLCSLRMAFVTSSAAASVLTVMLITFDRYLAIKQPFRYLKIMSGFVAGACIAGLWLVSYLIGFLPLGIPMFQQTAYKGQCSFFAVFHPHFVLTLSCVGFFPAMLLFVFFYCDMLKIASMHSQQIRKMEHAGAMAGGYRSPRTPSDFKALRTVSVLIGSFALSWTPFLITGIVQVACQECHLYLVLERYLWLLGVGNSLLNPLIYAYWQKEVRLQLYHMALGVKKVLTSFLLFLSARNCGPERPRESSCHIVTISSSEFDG
The experiment in a line: GPR119 radioligand binding assay ([3H]Cmpd A, membranes of HEK 293FT cells over-expressing hGPR119). The note with it: competition with 3H-Cmpd A; Ki from IC50 by Cheng-Prusoff; one line per run. How it is done: HEK 293FT cells (Invitrogen, Carlsbad, Calif.) were grown in a shake flask in 293Freestyle medium (Invitrogen) supplemented with 50 microg/mL neomycin and 10 mM HEPES (37 C, 8% carbon dioxide, shaking). The cells were centrifuged gently (approximately 500×g, 10 minutes) and the pellet resuspended in a mixture of Dulbecco's PBS(minus Mg++/−Ca++) supplemented with 18% fetal bovine serum (Sigma Aldrich) and P1 virus such that the multiplicity of infection (MOI) was 10 and the final cell density was 1.3×10^6/ml (total volume 2.5 liters). The cells were transferred to a 5 liter Wave Bioreactor Wavebag (Wave Technologies, MA) and incubated for 4 hours at 27 degrees Celsius (17 rocks/min, 7 degrees platform angle); at the end of the incubation period, an equal volume (2.5 liters) of 293Freestyle medium supplemented with 30 mM sodium butyrate (Sigma Aldrich) was added (final concentration=15 mM), and the cells were grown for 20 hours (37 degrees Celsius, 8% CO2 [0.2 liters/min}, 25 rocks/minute, 7 degrees platform angle). Cells were harvested via centrifugation (3,000×g, 10 minutes), washed once on DPBS (minus Ca++/Mg++), resuspended in 0.25M sucrose, 25 mM HEPES, 0.5 mM EDTA, pH 7.4 and frozen at −80 degrees Celsius.
The frozen cells were thawed on ice and centrifuged at 700×g (1400 rpm) for 10 minutes at 4 degrees Celsius. The cell pellet was resuspended in 20 ml phosphate-buffered saline, and centrifuged at 1400 rpm for 10 minutes. The cell pellet was then resuspended in homogenization buffer (10 mM HEPES (Gibco #15630), pH 7.5, 1 mM EDTA (BioSolutions, #BIO260-15), 1 mM EGTA (Sigma, #E-4378), 0.01 mg/ml benzamidine (Sigma #B 6506), 0.01 mg/ml bacitracin (Sigma #B 0125), 0.005 mg/ml leupeptin (Sigma #L 8511), 0.005 mg/ml aprotinin (Sigma #A 1153)) and incubated on ice for 10 minutes. Cells were then lysed with 15 gentle strokes of a tight-fitting glass Dounce homogenizer. The homogenate was centrifuged at 1000×g (2200 rpm) for 10 minutes at 4 degrees Celsius. The supernatant was transferred into fresh centrifuge tubes on ice. The cell pellet was resuspended in homogenization buffer, and centrifuged again at 1000×g (2200 rpm) for 10 minutes at 4 degrees Celsius after which the supernatant was removed and the pellet resuspended in homogenization buffer. This process was repeated a third time, after which the supernatants were combined, Benzonase (Novagen #71206) and MgCl2 (Fluka #63020) were added to final concentrations of 1 U/ml and 6 mM, respectively, and incubated on ice for one hour. The solution was then centrifuged at 25,000×g (15000 rpm) for 20 minutes at 4 degrees Celsius, the supernatant was discarded, and the pellet was resuspended in fresh homogenization buffer (minus Benzonase and MgCl2). After repeating the 25,000×g centrifugation step, the final membrane pellet was resuspended in homogenization buffer and frozen at −80 degrees Celsius. The protein concentration was determined using the Pierce BCA protein assay kit (Pierce reagents A #23223 and B #23224).
Test compounds were serially diluted in 100% DMSO (J. T. Baker #922401). 2 microL of each dilution was added to appropriate wells of a 96-well plate (each concentration in triplicate). Unlabeled Cmpd A, at a final concentration of 10 microM, was used to determine non-specific binding.
^3H-Cmpd A was diluted in binding buffer (50 mM Tris-HCl, pH 7.5, (Sigma #T7443), 10 mM MgCl2 (Fluka 63020), 1 mM EDTA (BioSolutions #BIO260-15), 0.15% bovine serum albumin (Sigma #A7511), 0.01 mg/mL benzamidine (Sigma #B 6506), 0.01 mg/mL bacitracin (Sigma #B 0125), 0.005 mg/mL leupeptin (Sigma #L 8511), 0.005 mg/mL aprotinin (Sigma #A 1153)) to a concentration of 60 nM, and 100 microL added to all wells of 96-well plate (Nalge Nunc #267245).
Membranes expressing GPR119 were thawed and diluted to a final concentration of 20 μg/100 microL per well in Binding Buffer, and 100 microL of diluted membranes were added to each well of 96-well plate. […]
Regarding `Cc1c(O[C@H]2[C@@H]3COC[C@H]2CN(C(=O)OC(C)(C)C)C3)ncnc1N1Cc2cnn(C)c2C1` [Example 9, tert-Butyl (9-anti)-9-{[5-methyl-6-(1-methyl-4,6-dihydropyrrolo[3,4-c]pyrazol-5(1H)-yl)pyrimidin-4-yl]oxy}-3-oxa-7-azabicyclo[3.3.1]nonane-7-carboxylate], the affinity, expressed as Ki, was 51 nM. In turn, `CC(C)OC(=O)N1CCC(Oc2ncnc(N3Cc4cnn(C)c4C3)c2C#N)CC1` [Example 3, Isopropyyl 4-{[5-cyano-6-(1-methyl-4,6-dihydropyrrolo[3,4-c]pyrazol-5(1H)-yl)pyrimidin-4-yl]oxy}piperidine-1-carboxylate] registered a Ki of 233 nM. For `Cc1c(O[C@H]2CCN(C(=O)OC3(C)CC3)C[C@H]2F)ncnc1N1Cc2cnn(C)c2C1` (racemic) [Example 7, 1-Methylcyclopropyyl (3,4-cis)-3-fluoro-4-{[5-methyl-6-(1-methyl-4,6-dihydropyrrolo[3,4-c]pyrazol-5(1H)-yl)pyrimidin-4-yl]oxy}piperidine-1-carboxylate (racemic)] the value was 3.4 nM and 11 nM; for `Cc1c(O[C@H]2CCN(C(=O)OC(C)(C)C)C[C@@H]2F)ncnc1N1Cc2cnn(C)c2C1` (racemic) [Example 8, tert-Butyl (3,4-trans)-3-fluoro-4-{[5-methyl-6-(1-methyl-4,6-dihydropyrrolo[3,4-c]pyrazol-5(1H)-yl)pyrimidin-4-yl]oxy}piperidine-1-carboxylate (racemic)], 130 nM; for `Cc1c(OC2CCN(C(=O)OC(C)C)CC2)ncnc1N1Cc2cnn(C)c2C1` [Example 2, Isopropyyl 4-{[5-methyl-6-(1-methyl-4,6-dihydropyrrolo[3,4-c]pyrazol-5(1H)-yl)pyrimidin-4-yl]oxy}piperidine-1-carboxylate], 502 nM and 229 nM and 171 nM. For `Cc1c(O[C@H]2CCN(C(=O)OC(C)(C)C)C[C@H]2F)ncnc1N1Cc2cnn(C)c2C1` (racemic) [Example 6, tert-Butyl (3,4-cis)-3-fluoro-4-{[5-methyl-6-(1-methyl-4,6-dihydropyrrolo[3,4-c]pyrazol-5(1H)-yl)pyrimidin-4-yl]oxy}piperidine-1-carboxylate (racemic)] the value was 36 nM.
